Laboratory results from PubChem BioAssay (NCI).
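Cells were grown in 96-well plates and exposed to each compound for 48 hours at five concentrations; endpoints were interpolated linearly between bracketing concentrations, or set to the highest concentration if not reached. GI50 marks 50% less growth. At the TGI there is no net growth.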

Columns and labels:
Test in all cases: NCI-60 cell line screen, 48 h
[1] = tested on: NCI-H226 lung
[2] = tested on: HCT-15 colon
[3] = tested on: OVCAR-5 ovarian
[4] = tested on: SF-268 CNS
[5] = tested on: MDA-MB-231 breast
[6] = tested on: LOX IMVI melanoma
[7] = tested on: COLO 205 colon
[8] = tested on: M14 melanoma
[9] = tested on: BT-549 breast
[10] = tested on: SR leukemia
[11] = tested on: SK-MEL-5 melanoma
[12] = tested on: NCI-H522 lung
[13] = tested on: SW-620 colon
[14] = tested on: UO-31 renal
[15] = tested on: MOLT-4 leukemia
[16] = tested on: PC-3 prostate
[17] = tested on: CCRF-CEM leukemia
[18] = tested on: CAKI-1 renal
[19] = tested on: HCC-2998 colon
[20] = tested on: SK-OV-3 ovarian
[21] = tested on: RXF 393 renal
[22] = tested on: HOP-92 NSCLC
[23] = tested on: U251 CNS
[24] = tested on: NCI-H460 lung
[25] = tested on: HT29 colon
[26] = tested on: TK-10 renal
[27] = tested on: UACC-257 melanoma
[28] = tested on: NCI/ADR-RES ovarian
[29] = tested on: MALME-3M melanoma
[30] = tested on: OVCAR-8 ovarian
[31] = tested on: SK-MEL-28 melanoma
[32] = tested on: OVCAR-4 ovarian
[33] = tested on: SNB-75 CNS
[34] = tested on: K-562 leukemia
[35] = tested on: SNB-19 CNS
[36] = tested on: SK-MEL-2 melanoma
[37] = tested on: EKVX NSCLC
[38] = tested on: SF-295 CNS
[39] = tested on: MCF7 breast
[40] = tested on: UACC-62 melanoma
[41] = tested on: A498 renal
[42] = tested on: KM12 colon
[43] = tested on: NCI-H23 lung
[44] = tested on: HL-60(TB) leukemia
[45] = tested on: IGROV1 ovarian
[46] = tested on: SN12C renal
[47] = tested on: ACHN renal
[48] = tested on: HOP-62 NSCLC
[49] = tested on: DU-145 prostate
[50] = tested on: SF-539 CNS
[51] = tested on: A549 NSCLC
[52] = tested on: HS 578T breast
[53] = tested on: 786-0 renal
[54] = tested on: HCT-116 colon
[55] = tested on: MDA-MB-435
[56] = tested on: RPMI-8226 leukemia
[57] = tested on: T-47D breast

Compound: Oc1ccc(CSc2nnc(-c3ccncc3)n2-c2ccccc2)c2cccnc12
- GI50 [1]: 3490 nM
- TGI [1]: > 100000 nM
- GI50 [2]: 363 nM
- TGI [2]: > 100000 nM
- GI50 [3]: 3690 nM
- TGI [3]: > 100000 nM
- GI50 [4]: 804 nM
- TGI [4]: > 100000 nM
- GI50 [5]: 1260 nM
- TGI [5]: > 55600 nM
- GI50 [6]: 471 nM
- TGI [6]: > 27900 nM
- GI50 [7]: 19200 nM
- TGI [7]: > 80400 nM
- GI50 [8]: 765 nM
- TGI [8]: 5960 nM
- GI50 [9]: 596 nM
- TGI [9]: > 63100 nM
- GI50 [10]: 396 nM
- TGI [10]: > 100000 nM
- GI50 [11]: 761 nM
- TGI [11]: 5600 nM
- GI50 [12]: 369 nM
- TGI [12]: > 100000 nM
- GI50 [13]: 542 nM
- TGI [13]: > 100000 nM
- GI50 [14]: 451 nM
- TGI [14]: 12800 nM
- GI50 [15]: 720 nM
- TGI [15]: > 100000 nM
- GI50 [16]: 735 nM
- TGI [16]: > 100000 nM
- GI50 [17]: 513 nM
- TGI [17]: > 100000 nM
- GI50 [18]: 1610 nM
- TGI [18]: > 100000 nM
- GI50 [19]: 3140 nM
- TGI [19]: > 100000 nM
- GI50 [20]: 2320 nM
- TGI [20]: > 29400 nM
- GI50 [21]: 2830 nM
- TGI [21]: 70500 nM
- GI50 [22]: 192 nM
- TGI [22]: 628 nM
- GI50 [23]: 422 nM
- TGI [23]: 63600 nM
- GI50 [24]: 375 nM
- TGI [24]: 14400 nM
- GI50 [25]: 3870 nM
- TGI [25]: > 100000 nM
- GI50 [26]: 3250 nM
- TGI [26]: > 100000 nM
- GI50 [27]: 2400 nM
- TGI [27]: > 31300 nM
- GI50 [28]: 309 nM
- TGI [28]: > 26400 nM
- GI50 [29]: 1050 nM
- TGI [29]: > 81500 nM
- GI50 [30]: 493 nM
- TGI [30]: > 100000 nM
- GI50 [31]: 1790 nM
- TGI [31]: > 100000 nM
- GI50 [32]: 3180 nM
- TGI [32]: > 100000 nM
- GI50 [33]: 642 nM
- TGI [33]: 43000 nM
- GI50 [34]: 363 nM
- TGI [34]: > 100000 nM
- GI50 [35]: 453 nM
- TGI [35]: > 89200 nM
- GI50 [36]: 628 nM
- TGI [36]: > 100000 nM
- GI50 [37]: 1400 nM
- TGI [37]: 21100 nM
- GI50 [38]: 1140 nM
- TGI [38]: > 38500 nM
- GI50 [39]: 357 nM
- TGI [39]: > 100000 nM
- GI50 [40]: 1750 nM
- TGI [40]: 7520 nM
- GI50 [41]: 2600 nM
- TGI [41]: 8640 nM
- GI50 [42]: 2270 nM
- TGI [42]: > 100000 nM
- GI50 [43]: 433 nM
- TGI [43]: > 46500 nM
- GI50 [44]: 677 nM
- TGI [44]: 5320 nM
- GI50 [45]: 1040 nM
- TGI [45]: > 57000 nM
- GI50 [46]: 385 nM
- TGI [46]: > 100000 nM
- GI50 [47]: 794 nM
- TGI [47]: > 28400 nM
- GI50 [48]: 773 nM
- TGI [48]: 16300 nM
- GI50 [49]: 686 nM
- TGI [49]: > 100000 nM
- GI50 [50]: 769 nM
- TGI [50]: 31300 nM
- GI50 [51]: 1750 nM
- TGI [51]: > 100000 nM
- GI50 [52]: 473 nM
- TGI [52]: > 84800 nM
- GI50 [53]: 3400 nM
- TGI [53]: 20000 nM
- GI50 [54]: 376 nM
- TGI [54]: > 100000 nM
- GI50 [55]: 462 nM
- TGI [55]: > 100000 nM
- GI50 [56]: 391 nM
- TGI [56]: > 100000 nM
- GI50 [57]: 1440 nM
- TGI [57]: > 45400 nM
